What all share (type): functional
In assay [1] the test system is KBv200. Briefly: Inhibition of cell proliferation in human KBv200 cells assessed as inhibition of VNR at 10 uM incubated for 72 hrs in presence of VNR by SRB assay relative to control. In general terms: In SRB staining, fixed cells bind dye roughly in proportion to their protein.
For assay [2], the system named is KBv200. In words: Cytotoxicity against human KBv200 cells at 10 uM incubated for 72 hrs by SRB assay relative to control.
The subject of assay [3] is KBv200. In words: Reversal fold, ratio of VNR IC50 to VNR IC50 in presence of test compound for human KBv200 cells incubated for 72 hrs by SRB assay.

In general, inhibition refers to how much of the control response was suppressed. Consider `CC[C@H](C)[C@@H]1NC(=O)[C@H](C(C)C)NC(=O)CCCCCC(=O)N[C@@H](Cc2ccccc2)COC1=O`, for which the inhibition at 10 µM in the assay on KBv200 [1] was determined as 25.7%.
Same read-out and setting: in the case of `CC(C)[C@@H]1NC(=O)CCCCCC(=O)N[C@@H](Cc2ccccc2)COC1=O` it was 42.6%.
Same read-out and setting: the result for `CC[C@H](C)[C@@H]1NC(=O)[C@H](C(C)C)NC(=O)CCCCCCCC(=O)N[C@@H](C)COC1=O` reads 49%.
`CC(C)[C@@H]1NC(=O)CCCCCCCCCCCC(=O)N[C@H](Cc2ccccc2)COC1=O`: in the assay on KBv200 [1], the inhibition at 10 µM amounted to 75.4%. In the assay on KBv200 [2], the Activity turned out to be 17%. The “Ratio IC50” value in the assay with KBv200 [3] worked out at 51.3.
In the case of `CC(C)[C@@H]1NC(=O)CCCCCCCC(=O)NCC(C)(C)COC1=O`, the inhibition at 10 µM in the assay with KBv200 [1] was 38.8%.
The same measure, in the same setting: in the case of `CC(C)[C@@H]1NC(=O)CCOCCOCCOCCC(=O)N[C@@H](Cc2ccccc2)COC1=O` it was 0.3%; in that of `CC(C)[C@@H]1NC(=O)CCCCCCCC(=O)Nc2ccccc2COC1=O`, 29.7%.
As for `CC[C@H](C)[C@@H]1NC(=O)[C@H](C(C)C)NC(=O)CCCCCCCC(=O)Nc2cc(F)cc(c2)COC1=O`, the inhibition at 10 µM with KBv200 [1] was 90.7%. In the assay on KBv200 [2], this compound showed an Activity of 4.6%. The “Ratio IC50” value in the assay on KBv200 [3] amounted to 19.3.
Take `CC(C)[C@@H]1NC(=O)CCCCCCCC(=O)N[C@@H](C(C)(C)C)COC1=O`: in the assay with KBv200 [1], the inhibition at 10 µM stood at 53.6%.
For `CC(C)[C@@H]1NC(=O)CCCCCCCC(=O)N[C@@H](c2ccccc2)COC1=O`, the inhibition at 10 µM in the assay on KBv200 [1] came out at 50.2%.
Turning to `CC[C@H](C)[C@@H]1NC(=O)[C@H](C(C)C)NC(=O)CCCCCCC(=O)Nc2cccc(c2)COC1=O`, in the assay on KBv200 [1], the inhibition at 10 µM was 83.5%. For the same compound, the Activity with KBv200 [2] is recorded as 4.4%. Further, in the assay with KBv200 [3], the “Ratio IC50” value stood at 10.2.
With `CC(C)[C@@H]1NC(=O)CCCCCCCC(=O)N[C@@H](Cc2ccccc2)COC(=O)Cc2ccc(cc2)NC1=O`, the inhibition at 10 µM in the assay on KBv200 [1] was determined as 35.9%.
As for `CC(C)[C@@H]1NC(=O)CCCCCCCC(=O)Nc2ccccc2OC1=O`, the inhibition at 10 µM with KBv200 [1] worked out at 14.5%.
Same read-out and setting: in the case of `CCC[C@H]1COC(=O)[C@H](C(C)C)NC(=O)CCCCCCCC(=O)N1` it was 46.3%.
Regarding `CC[C@H](C)[C@@H]1NC(=O)[C@H](C(C)C)NC(=O)CCCCCCCC(=O)Nc2cccc(c2)COC1=O`, the inhibition at 10 µM in the assay with KBv200 [1] was 92.3%. In the assay on KBv200 [2], the Activity was 31%. Further, the “Ratio IC50” value in the assay with KBv200 [3] is listed as 26.8.
With `CC(C)[C@@H]1NC(=O)CCCCCCCC(=O)N[C@@H](Cc2ccccc2)COC(=O)[C@H](Cc2ccccc2)NC1=O`, in the assay on KBv200 [1], the inhibition at 10 µM worked out at 88.9%. Further, the Activity with KBv200 [2] is given as 0%. In addition, the “Ratio IC50” value in the assay on KBv200 [3] was 2.7.
On the same counts, the results for `CC(C)[C@@H]1NC(=O)CCCCCCCCC(=O)N[C@@H](Cc2ccccc2)COC1=O` are 85.4%, 2.2% and 31.7.
On the same counts, the results for `CC[C@H](C)[C@@H]1NC(=O)[C@H](C(C)C)NC(=O)CCCCCCCC(=O)Nc2ccccc2COC1=O` are 90.9%, 19.8% and 7.3.
Take `CC(C)[C@@H]1NC(=O)CCCCCCCC(=O)N[C@@H](Cc2ccccc2)COC1=O`: the inhibition at 10 µM in the assay with KBv200 [1] is 80.6%. The Activity with KBv200 [2] was 0%. In addition, the “Ratio IC50” value with KBv200 [3] is 26.1.
On the same counts, the results for `CC[C@H](C)[C@@H]1NC(=O)[C@H](C(C)C)NC(=O)CCCCCCCC(=O)NCC(F)(F)COC1=O` are 73.4%, 10.3% and 2.3.
On the same counts, the results for `CC[C@H](C)[C@@H]1NC(=O)[C@H](C(C)C)NC(=O)CCCCCCCCC(=O)Nc2cccc(c2)COC1=O` are 77.6%, 10.9% and 7.3.
On the same counts, the results for `CC(C)[C@@H]1NC(=O)CCCCCCCC(=O)N[C@@H](Cc2ccccc2)COC(=O)Cc2cccc(c2)NC1=O` are 81.6%, 0% and 6.5.
On to `CSCC[C@H]1COC(=O)[C@H](C(C)C)NC(=O)CCCCCCCC(=O)N1`, for which the inhibition at 10 µM with KBv200 [1] came to 34%.
Still for that read-out and setting: the result for `CC(C)[C@@H]1NC(=O)CCCCCCCC(=O)N[C@@H](Cc2ccccc2)COC(=O)CNC1=O` reads 11%.
For the compound `CC[C@H](C)[C@@H]1NC(=O)[C@H](C(C)C)NC(=O)CCCCCCCCC(=O)N[C@@H](Cc2ccccc2)COC1=O`, the inhibition at 10 µM with KBv200 [1] was found to be 89.7%. Also, in the assay with KBv200 [2], the Activity was 8.6%. Also, the “Ratio IC50” value in the assay on KBv200 [3] is given as 22.2.
With `CC(C)[C@@H]1NC(=O)CCCCCCCC(=O)N[C@@H](Cc2ccccc2)COC(=O)CCCNC1=O`, the inhibition at 10 µM with KBv200 [1] turned out to be 26.8%.
The same measure, in the same setting: in the case of `CC[C@H](C)[C@@H]1NC(=O)[C@H](C(C)C)NC(=O)CCCCCC(=O)Nc2cccc(c2)COC1=O` it was 14.5%; in that of `CC[C@H](C)[C@@H]1NC(=O)[C@H](C(C)C)NC(=O)CCCCCCC(=O)N[C@@H](Cc2ccccc2)COC1=O`, 28.7%.
Same read-out and setting: the result for `CC(C)[C@@H]1NC(=O)CCCCCCC(=O)N[C@@H](Cc2ccccc2)COC1=O` reads 9.3%.
With `CC(C)[C@@H]1NC(=O)CCCCCCCCCC(=O)N[C@@H](Cc2ccccc2)COC1=O`, in the assay on KBv200 [1], the inhibition at 10 µM stood at 93.4%. The compound further showed an Activity with KBv200 [2] of 1.8%. The “Ratio IC50” value in the assay on KBv200 [3] is on record as 55.1.
On the same counts, the results for `CC[C@H](C)[C@@H]1NC(=O)[C@H](C(C)C)NC(=O)CCCCCCCC(=O)N[C@@H](Cc2ccccc2)COC1=O` are 91.3%, 21.8% and 20.8.
For `CC(C)[C@@H]1NC(=O)CCCCCCCC(=O)N[C@@H](c2ccccc2)[C@@H](c2ccccc2)OC1=O`, the inhibition at 10 µM in the assay on KBv200 [1] was 14.1%.
The same measure, in the same setting: in the case of `CC(C)[C@@H]1NC(=O)CCCCCCCC(=O)NCCCCOC1=O` it was 15.7%.
Turning to `CC(C)[C@H]1NC(=O)CCCCCCCCCCCC(=O)N[C@H](Cc2ccccc2)COC1=O`, the inhibition at 10 µM with KBv200 [1] was 91.5%. In the assay on KBv200 [2], the Activity stood at 15.8%. The “Ratio IC50” value in the assay on KBv200 [3] was determined as 114.5.
For the compound `CC(C)[C@@H]1NC(=O)CCCCCCCC(=O)N[C@H](c2ccccc2)CCOC1=O`, the inhibition at 10 µM in the assay with KBv200 [1] came out at 30.1%.
On the same count and under the same terms, in the case of `CC(C)[C@@H]1NC(=O)CCCCCCCC(=O)N[C@H]2[C@@H]3C[C@@H]4C[C@H]2C[C@@](C4)(C3)OC1=O` it was 14.1%; in that of `CC(C)[C@@H]1NC(=O)CCCCCCCC(=O)Nc2cccc(c2)COC1=O`, 13.1%.
On to `CC(C)[C@@H]1NC(=O)CCCCCCCC(=O)N[C@@H](Cc2ccccc2)COC(=O)CCNC1=O`, for which the inhibition at 10 µM in the assay with KBv200 [1] is 12%.
For the compound `CC[C@H](C)[C@@H]1NC(=O)[C@H](C(C)C)NC(=O)CCCCCCCC(=O)NCCCOC1=O`, the inhibition at 10 µM with KBv200 [1] came out at 44.8%.
With `CC(C)[C@@H]1NC(=O)CCCCCCCCCCCCC(=O)N[C@@H](Cc2ccccc2)COC1=O`, in the assay on KBv200 [1], the inhibition at 10 µM turned out to be 97.3%. The same compound yielded an Activity in the assay with KBv200 [2] of 4.4%. In addition, the “Ratio IC50” value with KBv200 [3] amounted to 99.2.
On the same counts, the results for `CC[C@H](C)[C@@H]1NC(=O)[C@H](C(C)C)NC(=O)CCCCCCCC(=O)N[C@@H](C(C)C)COC1=O` are 63.6%, 18.6% and 1.9.
On to `CC(C)[C@@H]1NC(=O)CCCCCCCC(=O)NCCCCCOC1=O`, for which the inhibition at 10 µM in the assay with KBv200 [1] came to 26.6%.
For `CC[C@H](C)[C@@H]1NC(=O)[C@H](C(C)C)NC(=O)CCCCCCCC(=O)N[C@@H]2CC[C@H](C2)OC1=O`, the inhibition at 10 µM in the assay with KBv200 [1] was found to be 72.2%. In the assay with KBv200 [2], this compound came in with an Activity of 20.5%. Moreover, the “Ratio IC50” value in the assay with KBv200 [3] turned out to be 1.4.
As for `CC[C@H](C)[C@@H]1NC(=O)[C@H](C(C)C)NC(=O)CCCCCCCC(=O)NCCOC1=O`, the inhibition at 10 µM in the assay with KBv200 [1] is 51.1%.
With `CC(C)[C@@H]1NC(=O)CCCCCCCC(=O)N[C@@H](C)COC1=O`, the inhibition at 10 µM with KBv200 [1] worked out at 20.7%.
On the same count and under the same terms, the result for `CC(C)[C@@H]1NC(=O)CCCCCCCC(=O)NC(C)(C)CCOC1=O` reads 23.1%; that for `CC(C)C[C@H]1COC(=O)[C@H](C(C)C)NC(=O)CCCCCCCC(=O)N1`, 48.9%.
For the compound `CC[C@H](C)[C@H]1COC(=O)[C@H](C(C)C)NC(=O)CCCCCCCC(=O)N1`, the inhibition at 10 µM in the assay with KBv200 [1] worked out at 51.2%.
The same measure, in the same setting: in the case of `CC(C)[C@@H]1NC(=O)CCCCCCCC(=O)Nc2cccc(c2)OC1=O` it was 12.8%.
Consider `CC(C)[C@H]1NC(=O)CCCCCCCCCCCC(=O)N[C@@H](Cc2ccccc2)COC1=O`, for which the inhibition at 10 µM with KBv200 [1] stood at 68.3%. In addition, the Activity in the assay on KBv200 [2] was 16.7%. Moreover, the “Ratio IC50” value in the assay with KBv200 [3] is on record as 57.2.
`CC(C)[C@@H]1NC(=O)CCCCCCCC(=O)NCCCCCCOC1=O`: the inhibition at 10 µM in the assay on KBv200 [1] came to 21.1%.
Regarding `CC(C)[C@@H]1NC(=O)CCCCCCCC(=O)N[C@@H](Cc2ccccc2)COC(=O)[C@H](C(C)C)NC1=O`, the inhibition at 10 µM in the assay with KBv200 [1] was 91.1%. Besides, the Activity in the assay on KBv200 [2] was 15.8%. Moreover, in the assay on KBv200 [3], the “Ratio IC50” value was 7.9.
For `CC(C)[C@@H]1NC(=O)CCCCCCCCCCC(=O)N[C@@H](Cc2ccccc2)COC1=O`, in that order: 97.6%, 5% and 85.
As to `CC(C)[C@@H]1NC(=O)CCCCCCCC(=O)NCCCOC1=O`, the inhibition at 10 µM in the assay on KBv200 [1] is 15%.
Same read-out and setting: the result for `CC(C)C1NC(=O)CCCCCCCC(=O)N[C@@]23C[C@H]4C[C@@H](C2)C[C@](C4)(C3)OC1=O` (some centres not stated) reads 42.9%.
For the compound `CC[C@H](C)[C@@H]1NC(=O)[C@H](C(C)C)NC(=O)CCCCCCCC(=O)NCCCCOC1=O`, the inhibition at 10 µM in the assay with KBv200 [1] came to 54%.
On the same count and under the same terms, the result for `CC[C@H](C)[C@@H]1NC(=O)[C@H](C(C)C)NC(=O)CCCCCCCC(=O)NCc2cccc(c2)OC1=O` reads 6.4%; that for `CC(C)[C@@H]1NC(=O)CCCCCCCC(=O)N[C@@H](Cc2ccccc2)COC(=O)[C@H](C)NC1=O`, 55.5%.
As to `CC(C)[C@@H]1NC(=O)CCCCCCCC(=O)NCCOC1=O`, in the assay on KBv200 [1], the inhibition at 10 µM was found to be 9.5%.
Consider `CC(C)[C@@H]1NC(=O)CCCCCCCC(=O)N[C@@H](C(C)C)COC1=O`, for which the inhibition at 10 µM with KBv200 [1] was 34.4%.

Values taken from ChEMBL document CHEMBL5528088, “Design and Synthesis of Cyclolipopeptide Mimics of Dysoxylactam A and Evaluation of the Reversing Potencies against P-Glycoprotein-Mediated Multidrug Resistance” (J Med Chem, 2024).
